Data taken from ChEMBL document CHEMBL1133170, “Binding mode of the 4-anilinoquinazoline class of protein kinase inhibitor: X-ray crystallographic studies of 4-anilinoquinazolines bound to cyclin-dependent kinase 2 and p38 kinase” (J Med Chem, 2000).

What was measured:
[1] = target: Cyclin-dependent kinase 2 (Homo sapiens, UniProt P24941); assay: Inhibition of Cyclin-dependent kinase 2
[2] = target: MAP kinase p38 (Homo sapiens, UniProt O15264+Q15759+Q16539+P53778); assay: Inhibition of Mitogen-activated protein kinase p38; assay type: protein assay

Work on COc1cc2ncnc(Nc3cccc(Br)c3)c2cc1OC yielded an IC50 [1] of 250 µM and an IC50 [2] of 6.3 µM.
